Source: US20160213742A1, “COMPOSITIONS AND METHODS FOR THE TREATMENT OF FUNGAL INFECTIONS” (priority 2013, published 2016)
In brackets after ≈: the same amount, converted by molar mass.

Assays:
Format in all cases: cell-based
C. albicans ATCC 90028 = assay: microbe, parasite or virus in culture
Outline: (§1)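 Aspergillus MEC and yeast MIC determined by 2-fold broth dilution in RPMI pH 7.0; plates incubated 35° C. until growth wells confluent (~24-48 hr), then read from below for growth inhibition or hyphal morphology change.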

C. glabrata ATCC 90030 = assay: microbe, parasite or virus in culture
Outline: as §1

C. krusei ATCC 14243 = assay: microbe, parasite or virus in culture
Outline: as §1

[1] = tested on: C. parapsilosis ATCC 22019; assay: microbe, parasite or virus in culture
Outline: as §1

A. flavus MX 5948 = assay: MEC assay (Example 31); settings: RPMI pH 7.0, 35° C., 24-48 hr
Outline: as §1

A. fumigatus ATCC 13073 = assay: MEC assay (Example 31); settings: RPMI pH 7.0, 35° C., 24-48 hr
Outline: as §1

A. fumigatus MX 5944 = assay: MEC assay (Example 31); settings: RPMI pH 7.0, 35° C., 24-48 hr
Outline: as §1

A. fumigatus MYA-3626 = assay: MEC assay (Example 31); settings: RPMI pH 7.0, 35° C., 24-48 hr
Outline: as §1

A. fumigatus MYA-4609 = assay: MEC assay (Example 31); settings: RPMI pH 7.0, 35° C., 24-48 hr
Outline: as §1

[2] = tested on: Neutrophils purified from human peripheral blood; assay: Human Neutrophil Transwell Migration Assay; settings: 37° C., 45 minutes, % of the maximum migration possible
Outline: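 Neutrophils (~50,000–100,000) were placed above 5-micron transwell inserts with test compound in the lower chamber and allowed to migrate 45 min at 37° C. Migrated cells were quantified by ATP luminescence; medium-only background was subtracted and values expressed as % of cells added directly to the bottom well.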

| Compound | MIC (C. albicans ATCC 90028; C. albicans ATCC 90028, RPMI pH 7.0, 35° C., 24-48 hr) | MIC (C. glabrata ATCC 90030; C. glabrata ATCC 90030, RPMI pH 7.0, 35° C., 24-48 hr) | MIC (C. krusei ATCC 14243; C. krusei ATCC 14243, RPMI pH 7.0, 35° C., 24-48 hr) | MIC ([1]; C. parapsilosis ATCC 22019, RPMI pH 7.0, 35° C., 24-48 hr) | MEC (A. flavus MX 5948) | MEC (A. fumigatus ATCC 13073) | MEC (A. fumigatus MX 5944) | MEC (A. fumigatus MYA-3626) | MEC (A. fumigatus MYA-4609) | MIC (C. albicans ATCC 90028; ATCC 90028, pH 7) | MIC (C. glabrata ATCC 90030; ATCC 90030, pH 7) | MIC (C. krusei ATCC 14243; ATCC 14243, pH 7) | MIC ([1]; ATCC 22019, pH 7) | % Neutrophil Migration ([2]; conc 0.001 μg/mL) | % Neutrophil Migration ([2]; conc 0.01 μg/mL) | % Neutrophil Migration ([2]; conc 0.1 μg/mL) | % Neutrophil Migration ([2]; conc 1 μg/mL) | % Neutrophil Migration ([2]; conc 10 μg/mL) |
| --- | --- | --- | --- | --- | --- | --- | --- | --- | --- | --- | --- | --- | --- | --- | --- | --- | --- | --- |
| caspofungin acetate [reference compound] | 0.03 to 0.12 µg/mL | 0.06 to 0.25 µg/mL | 0.5 to 1 µg/mL | 0.5 to 1 µg/mL | ≦0.015-0.06 μg/mL | ≦0.03-0.06 μg/mL | 0.03 to 0.12 µg/mL | ≦0.03-0.12 μg/mL | ≦0.03-1^ μg/mL |  |  |  |  |  |  |  |  |  |
| CC[C@H](C)C[C@H](C)CCCCCCCCC(=O)N[C@H]1C[C@@H](O)[C@@H](NCCN)NC(=O)[C@@H]2[C@@H](O)CCN2C(=O)[C@H]([C@H](O)CCNC(=O)[C@H](Cc2ccccc2)NC(=O)[C@H](CC(C)C)NC(=O)[C@H](CCSC)NC=O)NC(=O)[C@H]([C@H](O)[C@@H](O)c2ccc(O)cc2)NC(=O)[C@@H]2C[C@@H](O)CN2C(=O)[C@H]([C@@H](C)O)NC1=O [Compound 1] |  |  |  |  | 0.12 to 1 µg/mL | 0.12 to 2 µg/mL | 0.12 to 0.5 µg/mL | 0.25 to 0.5 µg/mL | 0.12 to 1 µg/mL | 2 µg/mL (≈ 1.32 µM) | 4 µg/mL (≈ 2.64 µM) | 8 µg/mL (≈ 5.29 µM) | 16 µg/mL (≈ 10.6 µM) | −4.7% | 67.9% | 70.7% | −10.6% | −11.2% |
| CC[C@H](C)C[C@H](C)CCCCCCCCC(=O)N[C@H]1C[C@@H](O)[C@@H](OCCN)NC(=O)[C@@H]2[C@@H](O)CCN2C(=O)[C@H]([C@H](O)CCNC(=O)[C@H](Cc2ccccc2)NC(=O)[C@H](CC(C)C)NC(=O)[C@H](CCSC)NC=O)NC(=O)[C@H]([C@H](O)[C@@H](O)c2ccc(O)cc2)NC(=O)[C@@H]2C[C@@H](O)CN2C(=O)[C@H]([C@@H](C)O)NC1=O [Compound 11] |  |  |  |  | 0.06 µg/mL | ≦0.06-0.06 μg/mL | 0.12 µg/mL | 0.06 to 0.12 µg/mL | 0.06 µg/mL | 2 µg/mL (≈ 1.32 µM) | 8 µg/mL (≈ 5.28 µM) | 16 µg/mL (≈ 10.6 µM) | 32 µg/mL (≈ 21.1 µM) | −4.7% | 80.3% | 28.3% | −8.0% | −10.9% |
